In the first assay the test system is breast tumor cells MDA-MB-436. Put plainly: MDA-MB-436 cell activity test (CellTiter-Glo, 7 days). The assay is classed as cell-based. The settings on record: Homo sapiens, MDA-MB-436, 168 h; 10 μM, 7 days incubation; read-out: MDA-MB-436 Max inh. % 10 μM. On the procedure:
Breast tumor cells MDA-MB-436 were purchased from ATCC, the culture medium was Leibovitz's L-15+10% FBS, and the cells were cultured in a CO2-free incubator at 37° C. On day 1, the cells in the exponential growth phase were collected, and the cell suspension was adjusted to 4000 cells/135 μL with the culture medium. 135 μL of the cell suspension was added to each well of a 96-well cell culture plate and incubated overnight. On day 2, compounds at different concentrations were added, and the plate was placed in the incubator and incubated for 7 days. After the incubation was completed, according to operation instructions for a CellTiter-Glo kit (Promega, G7573), 75 μL of CTG solution, which was already pre-melted and equilibrated to room temperature, was added to each well, and the mixture was uniformly mixed for 2 min using a microplate shaker. The plate was placed at room temperature for 10 min, and then […] were measured using an Envision2104 plate reader (PerkinElmer). The inhibition rate was calculated using formula (1), where RLUcompound was the readout of the drug treated group, RLUcontrol was the average value of the vehicle control group, and RLUblank was the average value of the cell-free well. The IC50 value was calculated using GraphPad Prism software.
As to `CCc1cc2ncc(CN3CCN(c4ccc(NC(=O)[C@H]5C[C@H]5F)nc4)CC3)cc2[nH]c1=O` [Compound 34, (1R,2R)—N-(5-(4-((7-ethyl-6-oxo-5,6-dihydro-1,5-naphthyridin-3-yl)methyl)piperazin-1-yl)pyridin-2-yl)-2-fluorocyclopropane-1-carboxamide], the inhibition at 10 µM is 81.9%.
For the molecule `CCc1cc2ncc(CN3CCN(c4ccc(NC(=O)[C@@H]5C[C@H]5F)nc4)CC3)cc2[nH]c1=O` [Compound 35, (1S,2R)—N-(5-(4-((7-ethyl-6-oxo-5,6-dihydro-1,5-naphthyridin-3-yl)methyl)piperazin-1-yl)pyridin-2-yl)-2-fluorocyclopropane-1-carboxamide], the inhibition at 10 µM stood at 90.4%.
As for `CCc1cc2ncc(CN3CCN(c4ccc(C(=O)NCCOC5CC5(F)F)nc4)CC3)cc2[nH]c1=O` (stereo not drawn) [Compound 52, N-(2-(2,2-difluorocyclopropoxy)ethyl)-5-(4-((7-ethyl-6-oxo-5,6-dihydro-1,5-naphthyridin-3-yl)methyl)piperazin-1-yl)picolinamide], the inhibition at 10 µM came out at 92.4%.
For `CCc1cc2ncc(CN3CCN(c4ccc(C(=O)NCCOC5CC5)nc4)CC3)cc2[nH]c1=O` [Compound 53, N-(2-cyclopropoxyethyl)-5-(4-((7-ethyl-6-oxo-5,6-dihydro-1,5-naphthyridin-3-yl)methyl)piperazin-1-yl)picolinamide], the inhibition at 10 µM was 90.6%.

Staying with this assay, now noted: Homo sapiens, MDA-MB-436, 168 h; 7 days incubation; read-out: MDA-MB-436 cell inhibitory activity IC50.
`CCc1cc2ncc(CN3CCN(c4ccc(NC(=O)[C@H]5C[C@H]5F)nc4)CC3)cc2[nH]c1=O` [Compound 34, (1R,2R)—N-(5-(4-((7-ethyl-6-oxo-5,6-dihydro-1,5-naphthyridin-3-yl)methyl)piperazin-1-yl)pyridin-2-yl)-2-fluorocyclopropane-1-carboxamide]: the IC50 was determined as 16.5 nM.
Consider `CCc1cc2ncc(CN3CCN(c4ccc(NC(=O)[C@@H]5C[C@H]5F)nc4)CC3)cc2[nH]c1=O` [Compound 35, (1S,2R)—N-(5-(4-((7-ethyl-6-oxo-5,6-dihydro-1,5-naphthyridin-3-yl)methyl)piperazin-1-yl)pyridin-2-yl)-2-fluorocyclopropane-1-carboxamide], for which the IC50 worked out at 9.8 nM.
For the molecule `CCc1cc2ncc(CN3CCN(c4ccc(C(=O)NCCOC5CC5(F)F)nc4)CC3)cc2[nH]c1=O` (stereo not drawn) [Compound 52, N-(2-(2,2-difluorocyclopropoxy)ethyl)-5-(4-((7-ethyl-6-oxo-5,6-dihydro-1,5-naphthyridin-3-yl)methyl)piperazin-1-yl)picolinamide], the IC50 amounted to 3.1 nM.
On to `CCc1cc2ncc(CN3CCN(c4ccc(C(=O)NCCOC5CC5)nc4)CC3)cc2[nH]c1=O` [Compound 53, N-(2-cyclopropoxyethyl)-5-(4-((7-ethyl-6-oxo-5,6-dihydro-1,5-naphthyridin-3-yl)methyl)piperazin-1-yl)picolinamide], for which the IC50 came out at 2.2 nM.

Another assay deals with PARP-1 enzyme (Homo sapiens (Human), UniProt P09874). Put plainly: PARP1 enzyme activity test (BPS Bioscience chemiluminescence kit). It counts as biochemical.
Chain of PARP-1 enzyme (P09874 whole entry): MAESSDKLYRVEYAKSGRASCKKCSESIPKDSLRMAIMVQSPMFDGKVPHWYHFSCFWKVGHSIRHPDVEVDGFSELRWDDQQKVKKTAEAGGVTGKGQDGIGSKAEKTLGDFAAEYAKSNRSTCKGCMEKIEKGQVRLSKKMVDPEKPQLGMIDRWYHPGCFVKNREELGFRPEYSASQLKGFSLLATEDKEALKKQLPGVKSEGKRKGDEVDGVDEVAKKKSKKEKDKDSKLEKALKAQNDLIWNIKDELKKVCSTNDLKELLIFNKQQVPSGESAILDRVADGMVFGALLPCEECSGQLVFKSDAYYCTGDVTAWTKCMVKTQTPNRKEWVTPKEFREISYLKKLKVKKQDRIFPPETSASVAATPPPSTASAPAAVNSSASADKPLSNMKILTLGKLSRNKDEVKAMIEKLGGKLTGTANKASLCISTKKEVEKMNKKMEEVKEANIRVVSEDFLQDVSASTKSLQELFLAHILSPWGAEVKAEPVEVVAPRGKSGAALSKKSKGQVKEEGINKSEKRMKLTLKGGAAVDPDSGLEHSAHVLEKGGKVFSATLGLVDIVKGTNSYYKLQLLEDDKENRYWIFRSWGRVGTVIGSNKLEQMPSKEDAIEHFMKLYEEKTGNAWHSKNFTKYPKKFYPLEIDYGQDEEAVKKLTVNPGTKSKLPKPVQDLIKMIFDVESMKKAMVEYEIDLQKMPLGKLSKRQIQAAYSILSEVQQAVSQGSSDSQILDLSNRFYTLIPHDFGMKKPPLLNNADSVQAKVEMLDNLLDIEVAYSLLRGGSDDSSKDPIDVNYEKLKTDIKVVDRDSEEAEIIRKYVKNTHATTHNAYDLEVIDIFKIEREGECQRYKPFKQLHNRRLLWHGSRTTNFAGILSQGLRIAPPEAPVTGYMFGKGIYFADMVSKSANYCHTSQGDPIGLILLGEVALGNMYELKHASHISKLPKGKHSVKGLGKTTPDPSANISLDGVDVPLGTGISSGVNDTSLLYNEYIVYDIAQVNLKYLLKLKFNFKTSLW
Details: not given
The text has this: Inhibition %=(1−(RLUsample−RLUmin)/(RLUmax−RLUmin))×100% (formula 1)
With `CCc1cc2ncc(CN3CCN(c4ccc5c(c4)CN(C)C5=O)CC3)cc2[nH]c1=O` [Compound 1, 3-ethyl-7-((4-(2-methyl-1-oxoisoindolin-5-yl)piperazin-1-yl)methyl)-1,5-naphthyridin-2 (1H)-one], the IC50 stood at 3.66 nM.
For the molecule `CCc1cc2ncc(CN3CCN(c4cnc(C(=O)NC)cn4)CC3)cc2[nH]c1=O` [Compound 2, 5-(4-((7-ethyl-6-oxo-5,6-dihydro-1,5-naphthyridin-3-yl)methyl)piperazin-1-yl)-N-methylpyrazine-2-carboxamide], the IC50 was 2.01 nM.
Consider `CCc1cc2ncc(CN3CCN(c4ccc(-c5nnc(C)o5)nc4)CC3)cc2[nH]c1=O` [Compound 3, 3-ethyl-7-((4-(6-(5-methyl-1,3,4-oxadiazol-2-yl)pyridin-3-yl)piperazin-1-yl)methyl)-1,5-naphthyridin-2 (1H)-one], for which the midpoint of inhibition, the IC50, lay at 1.33 nM.
Turning to `CCc1cc2ncc(CN3CCN(c4ccc(NC(C)=O)nc4)CC3)cc2[nH]c1=O` [Compound 7, N-(5-(4-((7-ethyl-6-oxo-5,6-dihydro-1,5-naphthyridin-3-yl)methyl)piperazin-1-yl)pyridin-2-yl)acetamide], the IC50 was determined as 0.32 nM.
In turn, `CCc1cc2ncc(CN3CCN(c4ccc(NC(=O)OC)nc4)CC3)cc2[nH]c1=O` [Compound 8, methyl(5-(4-((7-ethyl-6-oxo-5,6-dihydro-1,5-naphthyridin-3-yl)methyl)piperazin-1-yl)pyridin-2-yl)carbamate] showed an IC50 of 0.58 nM.
`CCc1cc2ncc(CN3CCN(c4cnc(C(=O)NC)cc4F)CC3)cc2[nH]c1=O` [Compound 12, 5-(4-((7-ethyl-6-oxo-5,6-dihydro-1,5-naphthyridin-3-yl)methyl)piperazin-1-yl)-4-fluoro-N-methylpicolinamide]: the IC50 is 1.6 nM.
Still for that read-out and setting: for `CCc1cc2ncc(CN3CCN(c4cnc(C(=O)NC5CC5)cc4F)CC3)cc2[nH]c1=O` [Compound 13, N-cyclopropyl-5-(4-((7-ethyl-6-oxo-5,6-dihydro-1,5-naphthyridin-3-yl)methyl)piperazin-1-yl)-4-fluoropicolinamide] the value was 0.76 nM.
On the same count and under the same terms, for `CCc1cc2ncc(CN3CCN(c4ccc(NC(=O)NC)nc4)CC3)cc2[nH]c1=O` [Compound 14, 1-(5-(4-((7-ethyl-6-oxo-5,6-dihydro-1,5-naphthyridin-3-yl)methyl)piperazin-1-yl)pyridin-2-yl)-3-methylurea] the value was 0.71 nM; for `CCc1cc2ncc(CN3CCN(c4cn5cc(C)nc5cn4)CC3)cc2[nH]c1=O` [Compound 15, 3-ethyl-7-((4-(2-methylimidazo[1,2-a]pyrazin-6-yl)piperazin-1-yl)methyl)-1,5-naphthyridin-2 (1H)-one], 0.65 nM; for `CCc1cc2ncc(CN3CCN(c4ccc(C(=O)NC5CCNCC5)nc4)CC3)cc2[nH]c1=O` [Compound 16, 5-(4-((7-ethyl-6-oxo-5,6-dihydro-1,5-naphthyridin-3-yl)methyl)piperazin-1-yl)-N-(piperidin-4-yl)picolinamide], 0.51 nM.
Still for that read-out and setting: for `CCc1cc2ncc(CN3CCN(c4ccc(C(=O)NC5CCN(C)CC5)nc4)CC3)cc2[nH]c1=O` [Compound 17, 5-(4-((7-ethyl-6-oxo-5,6-dihydro-1,5-naphthyridin-3-yl)methyl)piperazin-1-yl)-N-(1-methylpiperidin-4-yl)picolinamide] the value was 0.35 nM; for `CCc1cc2ncc(CN3CCN(c4ccc(C(=O)N[C@@H]5CCNC5)nc4)CC3)cc2[nH]c1=O` [Compound 18, (R)-5-(4-((7-ethyl-6-oxo-5,6-dihydro-1,5-naphthyridin-3-yl)methyl)piperazin-1-yl)-N-(pyrrolidin-3-yl)picolinamide], 0.33 nM.
Consider `CCc1cc2ncc(CN3CCN(c4ccc(C(=O)N[C@H]5CCNC5)nc4)CC3)cc2[nH]c1=O` [Compound 20, (S)-5-(4-((7-ethyl-6-oxo-5,6-dihydro-1,5-naphthyridin-3-yl)methyl)piperazin-1-yl)-N-(pyrrolidin-3-yl)picolinamide], for which the midpoint of inhibition, the IC50, lay at 0.32 nM.
On the same count and under the same terms, for `CCc1cc2ncc(CN3CCN(c4ccc5nc(C)cn5n4)CC3)cc2[nH]c1=O` [Compound 27, 3-ethyl-7-((4-(2-methylimidazo[1,2-b]pyridazin-6-yl)piperazin-1-yl)methyl)-1,5-naphthyridin-2 (1H)-one] the value was 0.75 nM.
`CCc1cc2ncc(CN3CCN(c4ccc(-c5cnn[nH]5)nc4)CC3)cc2[nH]c1=O` [Compound 29, 7-((4-(6-(1H-1,2,3-triazol-5-yl)pyridin-3-yl)piperazin-1-yl)methyl)-3-ethyl-1,5-naphthyridin-2 (1H)-one] came in with a concentration for half-maximal inhibition (IC50) of 0.45 nM.
On the same count and under the same terms, for `CCc1cc2ncc(CN3CCN(c4ccc(-c5ccn[nH]5)nc4)CC3)cc2[nH]c1=O` [Compound 30, 7-((4-(6-(1H-pyrazol-5-yl)pyridin-3-yl)piperazin-1-yl)methyl)-3-ethyl-1,5-naphthyridin-2 (1H)-one] the value was 0.45 nM.
Turning to `CCc1cc2ncc(CN3CCN(c4ccc5nc(C)nn5c4)CC3)cc2[nH]c1=O` [Compound 31, 3-ethyl-7-((4-(2-methyl-[1,2,4]triazolo[1,5-a]pyridin-6-yl)piperazin-1-yl)methyl)-1,5-naphthyridin-2 (1H)-one], the midpoint of inhibition, the IC50, lay at 1.7 nM.
For `CCc1cc2ncc(CN3CCN(c4ccc(Nc5ccn(C)n5)nc4)CC3)cc2[nH]c1=O` [Compound 32, 3-ethyl-7-((4-(6-((1-methyl-1H-pyrazol-3-yl)amino)pyridin-3-yl)piperazin-1-yl)methyl)-1,5-naphthyridin-2 (1H)-one], half-maximal inhibition (IC50) was put at 2 nM.
In turn, `CCc1cc2ncc(CN3CCN(c4ccc(NC(=O)[C@H]5CCN(C)C5)nc4)CC3)cc2[nH]c1=O` [Compound 36, (S)—N-(5-(4-((7-ethyl-6-oxo-5,6-dihydro-1,5-naphthyridin-3-yl)methyl)piperazin-1-yl)pyridin-2-yl)-1-methylpyrrolidine-3-carboxamide] gave an IC50 of 0.58 nM.

Values taken from patent US20240400586A1, “HETEROARYL DERIVATIVE PARP INHIBITOR AND USE THEREOF” (HAISCO PHARMACEUTICAL GROUP CO., LTD., priority 2021, published 2024).
